From ChEMBL document CHEMBL5584309, “Discovery of Novel Mcl-1 Inhibitors with a 3-Substituted-1H-indole-1-yl Moiety Binding to the P1-P3 Pockets to Induce Apoptosis in Acute Myeloid Leukemia Cells” (J Med Chem, 2024)
Calls of active or inactive are those of the source. No cut-off for these calls is given here.

Legend:
THP-1 [1] = experiment: Induction of apoptosis in human THP-1 cells assessed as viable cells at 5 uM measured after 24 hrs by Annexin V-FITC/propidium iodide double staining based assay (reference value: 93.02%); assay type: functional; details: read-out: Activity
[2] = Cytotoxicity against rat H9c2 cells assessed as cell viability measured after 72 hrs by MTT assay; assay type: toxicity, cell-based
HL-60 [3] = experiment: Induction of apoptosis in human HL-60 cells assessed as early apoptotic cells at 5 uM measured after 24 hrs by Annexin V-FITC/propidium iodide double staining based assay (reference value: 3.37%); assay type: functional
[4] = Metabolic stability in rat liver microsomes assessed as compound remaining measured after 45 mins by LC-MS/MS analysis; assay type: ADME, Microsome; details: read-out: Stability
HL-60 [5] = experiment: Induction of apoptosis in human HL-60 cells assessed as late apoptotic cells at 5 uM measured after 24 hrs by Annexin V-FITC/propidium iodide double staining based assay (reference value: 3.78%); assay type: functional
[6] = Toxicity in NOD SCID mouse assessed as change in spleen tissue at 25 mg/kg, ip administered for 7 consecutive days by Hematoxylin-eosin (HE) staining based assay; assay type: organism-based; details: in vivo, 168 h, time 7 day
[7] = Cytotoxicity against human AC16 cells assessed as change in intracellular calcium level at 20 uM measured after 24 hrs by Fluo-4 AM based flow cytometry; assay type: toxicity, cell-based; details: ac16 [human hybrid]
[8] = MRT (0 to t) in Sprague-Dawley rat at 20 mg/kg, ip measured upto 24 hrs by LC-MS/MS analysis; assay type: ADME, organism-based; details: in vivo
THP-1 [9] = experiment: In vivo antitumor activity against human THP-1 cells xenografted in female NOD SCID mouse assessed as tumor growth inhibition at 40 mg/kg, ip once daily after 10 days of tumor inoculation treated for 14 days relative to control; assay type: functional; details: THP-1, 336 h, time 14 day, read-out: TGI
[10] = Toxicity in NOD SCID mouse xenografted with human HL-60 cells assessed as change in kidney tissue at 80 mg/kg, ip once daily after 15 days of tumor inoculation treated for 12 days; assay type: organism-based; details: in vivo
[11] = Toxicity in NOD SCID mouse assessed as change in body weight at 25 mg/kg, ip administered for 7 consecutive days; assay type: organism-based; details: in vivo, 168 h, time 7 day
THP-1 [12] = experiment: Induction of apoptosis in human THP-1 cells assessed as late apoptotic cells at 10 uM measured after 24 hrs by Annexin V-FITC/propidium iodide double staining based assay (reference value: 2.81%); assay type: functional
[13] = Toxicity in NOD SCID mouse xenografted with human THP-1 cells assessed as change in liver tissue at 40 to 80 mg/kg, ip once daily after 10 days of tumor inoculation treated for 14 days relative to control; assay type: organism-based; details: in vivo, 336 h, dose 40-80 mg/kg, time 14 day
[14] = Toxicity in NOD SCID mouse xenografted with human THP-1 cells assessed as change in heart tissue at 40 to 80 mg/kg, ip once daily after 10 days of tumor inoculation treated for 14 days relative to control; assay type: organism-based; details: in vivo, 336 h, dose 40-80 mg/kg, time 14 day
[15] = Metabolic stability in rat plasma assessed as compound remaining measured after 60 mins by LC-MS/MS analysis; assay type: ADME, cell-free; details: read-out: Stability
HL-60 [16] = experiment: In vivo antitumor activity against human HL-60 cells xenografted in female NOD SCID mouse assessed as tumor growth inhibition at 80 mg/kg, ip once daily after 15 days of tumor inoculation treated for 12 days relative to control; assay type: functional; details: HL-60, 288 h, time 12 day, read-out: TGI
THP-1 [17] = experiment: Induction of apoptosis in human THP-1 cells assessed as necrotic cells at 10 uM measured after 24 hrs by Annexin V-FITC/propidium iodide double staining based assay (reference value: 0.13%); assay type: functional
[18] = Metabolic stability in rat liver microsomes assessed as compound remaining measured after 60 mins by LC-MS/MS analysis; assay type: ADME, Microsome; details: read-out: Stability
HL-60 [19] = experiment: Induction of apoptosis in human HL-60 cells assessed as viable cells at 2.5 uM measured after 24 hrs by Annexin V-FITC/propidium iodide double staining based assay (reference value: 92.68%); assay type: functional; details: read-out: Activity
[20] = Toxicity in NOD SCID mouse assessed as change in kidney tissue at 25 mg/kg, ip administered for 7 consecutive days by Hematoxylin-eosin (HE) staining based assay; assay type: organism-based; details: in vivo, 168 h, time 7 day
U-937 = experiment: Antiproliferative activity against human U-937 cells assessed as growth inhibition measured after 72 hrs by CCK-8 assay; assay type: functional, cell-based; details: U-937, 72 h
HL-60 [21] = experiment: In vivo antitumor activity against human HL-60 cells xenografted in female NOD SCID mouse assessed as tumor growth inhibition at 40 mg/kg, ip once daily after 15 days of tumor inoculation treated for 12 days relative to control; assay type: functional; details: read-out: TGI
[22] = Metabolic stability in rat liver microsomes assessed as compound remaining measured after 5 mins by LC-MS/MS analysis; assay type: ADME, Microsome
[23] = target: Voltage-gated inwardly rectifying potassium channel KCNH2 (Homo sapiens, UniProt Q12809); experiment: Inhibition of hERG; assay type: toxicity
THP-1 [24] = experiment: Induction of apoptosis in human THP-1 cells assessed as viable cells at 10 uM measured after 24 hrs by Annexin V-FITC/propidium iodide double staining based assay (reference value: 93.02%); assay type: functional; details: read-out: Activity
[25] = MRT (0 to infinity) in Sprague-Dawley rat at 20 mg/kg, ip measured upto 24 hrs by LC-MS/MS analysis; assay type: ADME, organism-based; details: in vivo
[26] = target: Apoptosis regulator Bcl-2 (Homo sapiens, UniProt P10415); experiment: Binding affinity to Bcl-2 in human THP-1 cells assessed as dissociation of Bim from Bcl-2 at 20 uM measured after 24 hrs by Co-immunoprecipitation (Co-IP) assay; assay type: cell-based
[27] = Toxicity in NOD SCID mouse xenografted with human HL-60 cells assessed as change in spleen tissue at 80 mg/kg, ip once daily after 15 days of tumor inoculation treated for 12 days; assay type: organism-based; details: in vivo, 288 h, time 12 day
HL-60 [28] = experiment: In vivo antitumor activity against human HL-60 cells xenografted in female NOD SCID mouse assessed as reduction in tumor volume at 80 mg/kg, ip once daily after 15 days of tumor inoculation treated for 12 days; assay type: functional, organism-based; details: time 12.0 day
[29] = Metabolic stability in rat liver microsomes assessed as compound remaining measured after 15 mins by LC-MS/MS analysis; assay type: ADME, Microsome; details: read-out: Stability
[30] = MRT (0 to t) in Sprague-Dawley rat at 5 mg/kg, iv measured upto 24 hrs by LC-MS/MS analysis; assay type: ADME, organism-based; details: in vivo
[31] = Toxicity in NOD SCID mouse xenografted with human HL-60 cells assessed as change in heart tissue at 80 mg/kg, ip once daily after 15 days of tumor inoculation treated for 12 days; assay type: organism-based; details: in vivo, 288 h, time 12 day
THP-1 [32] = experiment: Induction of apoptosis in human THP-1 cells assessed as increase in Noxa measured after 24 hrs by Western blot analysis; assay type: functional, cell-based; details: dose 10-20 µM
[33] = Toxicity in NOD SCID mouse assessed as change in liver tissue at 25 mg/kg, ip administered for 7 consecutive days by Hematoxylin-eosin (HE) staining based assay; assay type: organism-based; details: in vivo, 168 h, time 7 day
THP-1 [34] = experiment: Induction of apoptosis in human THP-1 cells assessed as viable cells at 20 uM measured after 24 hrs by Annexin V-FITC/propidium iodide double staining based assay (reference value: 93.02%); assay type: functional; details: read-out: Activity

Chain of Voltage-gated inwardly rectifying potassium channel KCNH2 (Q12809 whole entry): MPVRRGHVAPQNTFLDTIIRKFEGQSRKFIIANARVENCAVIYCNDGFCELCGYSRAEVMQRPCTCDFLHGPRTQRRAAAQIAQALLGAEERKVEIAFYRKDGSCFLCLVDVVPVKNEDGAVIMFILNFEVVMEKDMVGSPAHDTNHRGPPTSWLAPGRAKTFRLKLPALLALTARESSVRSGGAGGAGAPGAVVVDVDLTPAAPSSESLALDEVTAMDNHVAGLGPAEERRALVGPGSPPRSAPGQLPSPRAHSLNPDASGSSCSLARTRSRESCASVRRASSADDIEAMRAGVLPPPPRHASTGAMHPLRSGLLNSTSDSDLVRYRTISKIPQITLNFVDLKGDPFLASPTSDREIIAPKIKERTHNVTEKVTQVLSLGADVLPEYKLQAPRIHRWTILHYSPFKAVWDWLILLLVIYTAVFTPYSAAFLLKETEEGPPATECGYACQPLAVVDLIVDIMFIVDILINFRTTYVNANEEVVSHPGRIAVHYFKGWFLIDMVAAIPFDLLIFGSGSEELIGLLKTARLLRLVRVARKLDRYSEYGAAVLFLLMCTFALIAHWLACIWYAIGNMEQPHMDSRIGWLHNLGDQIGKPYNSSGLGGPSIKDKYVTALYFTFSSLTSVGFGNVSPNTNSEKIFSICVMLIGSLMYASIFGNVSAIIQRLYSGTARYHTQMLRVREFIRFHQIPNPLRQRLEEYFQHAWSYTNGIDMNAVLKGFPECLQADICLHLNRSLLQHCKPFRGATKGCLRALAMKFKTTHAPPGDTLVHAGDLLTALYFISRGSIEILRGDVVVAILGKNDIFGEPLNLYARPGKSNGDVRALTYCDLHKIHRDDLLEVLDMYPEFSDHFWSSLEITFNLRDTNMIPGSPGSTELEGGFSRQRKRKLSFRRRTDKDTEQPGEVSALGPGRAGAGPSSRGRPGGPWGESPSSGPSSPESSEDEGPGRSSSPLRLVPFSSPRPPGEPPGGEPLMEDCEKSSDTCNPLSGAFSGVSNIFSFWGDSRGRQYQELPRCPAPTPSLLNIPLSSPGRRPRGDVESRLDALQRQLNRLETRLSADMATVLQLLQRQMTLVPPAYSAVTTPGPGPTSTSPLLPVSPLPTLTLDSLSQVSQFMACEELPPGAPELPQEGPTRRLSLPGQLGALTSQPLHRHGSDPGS
Chain of Apoptosis regulator Bcl-2 (P10415 whole entry): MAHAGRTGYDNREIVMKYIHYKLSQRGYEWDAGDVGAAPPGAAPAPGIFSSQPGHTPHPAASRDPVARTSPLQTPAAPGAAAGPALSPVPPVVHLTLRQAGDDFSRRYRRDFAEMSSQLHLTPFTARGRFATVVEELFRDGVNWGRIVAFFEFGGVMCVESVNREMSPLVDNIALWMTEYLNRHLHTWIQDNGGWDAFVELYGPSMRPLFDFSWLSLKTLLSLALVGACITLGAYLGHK

Cc1cc(OCCCc2c(C(=O)O)n(CCN3CCOCC3)c3c(-c4ccccc4Cn4cc(CCN(CCN5CCOCC5)S(=O)(=O)c5ccc(F)cc5)c5ccccc54)cccc23)cc(C)c1Cl
viability at 5 µM (THP-1 [1]): 93.2%
IC50 at 72 h [2]: 17.9 µM
Activity (HL-60 [3]): 4.06%
remaining at 0.75 h [4]: 46%
Activity (HL-60 [5]): 13.47%
Activity [6]: Non-Toxic
Activity [7]: Non-Toxic
MRT last at 24 h [8]: 6.51 h
inhibition in vivo at 40 mg/kg (THP-1 [9]): 40.2%
Activity [10]: Non-Toxic
Activity [11]: Non-Toxic
Activity (THP-1 [12]): 4.12%
Activity [13]: Non-Toxic
Activity [14]: Non-Toxic
remaining at 1 h [15]: 94.8%
inhibition in vivo at 80 mg/kg (HL-60 [16]): 63.7%
Activity (THP-1 [17]): 0.14%
remaining at 1 h [18]: 34.1%
viability at 2.5 µM (HL-60 [19]): 92.8%
Activity [20]: Non-Toxic
IC50 (U-937): 8.33 µM
inhibition in vivo at 40 mg/kg (HL-60 [21]): 46.1%
Stability ([22]; microsomes, 5 min): 69.3%
IC50 [23]: > 50 µM
viability at 10 µM (THP-1 [24]): 91.2%
MRT inf [25]: 7.03 h
Activity [26]: inactive
Activity [27]: Non-Toxic
Activity (HL-60 [28]): Active
remaining at 0.25 h [29]: 67.4%
MRT last at 24 h [30]: 1.14 h
Activity [31]: Non-Toxic
Activity (THP-1 [32]): Dose-Dependent Effect
Activity [33]: Non-Toxic
viability at 20 µM (THP-1 [34]): 68.6%

Cc1nn(C)c(COc2ccc(N3CCN(S(=O)(=O)N(C)C)CC3)cc2)c1-c1cccc2c(CCCOc3cccc4ccccc34)c(C(=O)O)n(CCN3CCOCC3)c12
viability at 5 µM (THP-1 [1]): 94%
Activity (HL-60 [3]): 1.28%
remaining at 0.75 h [4]: 43.7%
Activity (HL-60 [5]): 4.82%
Activity (THP-1 [12]): 2.8%
remaining at 1 h [15]: 106%
Activity (THP-1 [17]): 0.09%
remaining at 1 h [18]: 31.6%
viability at 2.5 µM (HL-60 [19]): 96.2%
IC50 (U-937): 4.71 µM
remaining at 5 min ([22]; liver microsomes, read-out: Stability): 77.1%
viability at 10 µM (THP-1 [24]): 92.9%
remaining at 0.25 h [29]: 67.6%
viability at 20 µM (THP-1 [34]): 41.9%
